Reference: patent US7405228B2, “Antibacterial cyano-(substituted)-methylenepiperidinophenyl oxazolidinones targeting multiple ribonucleoprotein sites” (Wockhardt Limited, priority 2002, dated 2008)
Converted amounts (≈) assume the structure as drawn.

Tests used:
[1] = test system: E. faecium 367 LNZR; experiment: MIC determination, linezolid resistant E. faecium 367 LNZR; type: cell-based; details: Enterococcus faecium, read-out: MIC E. faecium 367 LNZR
Description: E. faecium ATCC 19434 strain at a cell density of 10^6/ml was inoculated in Mueller Hinton broth medium containing Linezolid at a concentration of 5 and 7.5 mcg/ml. The stationary culture was incubated at 37° C. and inspected at every 24 hours to assess the formation of turbidity due to the onset of bacterial growth. […] A 50 microliter sample of turbid flask was plated on Mueller Hinton agar medium incorporated with linezolid at 7.5 mcg/ml. The agar plates were incubated for 48 hours at 37° C. for the formation of discrete colonies of linezolid-resistant strain of E. faecium (E. faecium 367 LNZR). MICs of resistant mutant E. faecium 367 LNZR and parent strain E. faecium ATCC 19434 were determined for linezolid by NCCLS method.
(§1) Cultures were further diluted 1:10 in Mueller Hinton broth. Using Denley's mutipoint inoculator, 10^4 cells were deposited on Mueller Hinton agar (Difco) containing range of 2 fold dilutions of test compounds. […] MIC is defined as minimum drug concentration that inhibits test organisms. For determining MIC of test compounds against Streptococcus pneumoniae, Mueller Hinton agar containing 5% sheep blood was employed.

[2] = test system: S. aureus MRSA-32 LNZR; experiment: MIC determination, linezolid resistant S. aureus MRSA-32 LNZR; type: cell-based; details: Staphylococcus aureus, 24 h, read-out: MIC MRSA 32 LNZR
Description: (§2) Infecting doses of organisms given by intraperitoneal route in 5% hog gastric mucin were 10^3-10^4 CFU (colony forming units)/animal for SPN 6303 and 10^8 CFU/animal for MRSA-32. In case of MRSA-32, Linezolid was administered by oral route, 1 and 4 h post infection, BID (twice a day) for 1 day and for SPN 6303 BID for 2 days. […] MICs of Methicillin Resistant Staphylococcus aureus-32 Linezolid resistant (MRSA-32 LNZR), S. pneumoniae 744 Linezolid resistant (SPN 744 LNZR) and parent Linezolid sensitive strains MRSA-32 and SPN 6303 were determined for Linezolid by NCCLS agar dilution method.
as §1

[3] = test system: Enterococcus faecalis 416 strain; experiment: Propensity to resistance development (resistant colonies per plate); type: cell-based; details: E. faecalis 416 at 10^8 CFU, compound concentration 5 mcg/ml, 48 hours at 35° C.
Description: Enterococcus faecalis 416 strain at 10^8 CFU density level was spirally plated on Mueller Hinton agar containing 5 mcg/ml each of linezolid and representative compound of the invention. Plates were incubated at 35° C. for 48 hours and number of resistant colonies developed in presence of respective compounds were counted by automated counter.

[4] = test system: Enterococcus faecalis 416; experiment: Mutant Prevention Concentration (MPC) determination; type: cell-based; design: unit not given here; details: E. faecalis 416, 10^9 CFU/plate, TSA, 48 hours at 35° C.
Description: Clinical isolate Enterococcus faecalis 416 was spirally plated on Tryptic Soya agar (TSA) plate containing various 2 fold dilutions each of a representative compound of the invention and Linezolid so as to give 10^9 CFU/plate. After incubation at 35° C. for 48 hours, the CFU on each plate was determined. MPC is defined as minimum concentration of drug that prevents mutant colonies on respective antibiotic containing plate.

[5] = test system: SPN 744 LNZR; experiment: MIC determination, linezolid resistant SPN 744 LNZR; type: cell-based; details: Streptococcus pneumoniae, read-out: MIC SPN744 LNZR
Description: as §2, §1

[6] = test system: Enterococcus faecalis 416 strain; experiment: Killing effect study (bactericidal vs bacteriostatic activity); type: cell-based; details: E. faecalis 416, 5 mcg/ml compound, initial count 10^6 CFU/ml, Table 4
Description: The initial inoculum was adjusted to 10^6 CFU (colony forming units) per ml. The flasks were kept on shaker in close cabinet at 35° C. Aliquots were drawn at 112 hours and cell count was determined to assess the extent of loss in viability.

[7] = test system: SPN 49619; experiment: MIC determination, linezolid sensitive SPN 49619; type: cell-based; details: Streptococcus pneumoniae; linezolid sensitive strain, Table 3
[8] = test system: MRSA 032; experiment: MIC determination, linezolid sensitive MRSA 032 (MRSA-32); type: cell-based; details: Staphylococcus aureus, read-out: MIC MRSA 32
Description: as §2, §1

[9] = test system: linezolid-resistant S. pneumoniae; details: Adis R&D Insight report Document 013296; cited from earlier work

| SMILES | MIC [1] | MIC [2] | No. of colonies/plate [3] | MPC [4] | MIC [5] | Final Count (112 h) [6] | MIC [7] | MIC [8] | activity against linezolid-resistant S. pneumoniae [9] |
| --- | --- | --- | --- | --- | --- | --- | --- | --- | --- |
| CC(=O)NC[C@H]1CN(c2ccc(N3CCC(=CC#N)CC3)cc2)C(=O)O1 [Example 3, (S)-N-{3-[4-(4-cyanomethylidene-piperidin-1-yl)-phenyl]-2-oxo-oxazolidin-5-ylmethyl}-acetamide] | 25 µg/mL (≈ 70.5 µM) | 25 µg/mL (≈ 70.5 µM) | 0 | 12.5 | 12.5 µg/mL (≈ 35.3 µM) | 10^6 CFU/ml | 0.8 µg/mL (≈ 2.26 µM) | 1.56 µg/mL (≈ 4.4 µM) |  |
| N#CC=C1CCN(c2ccc(N3C[C@H](CNC(=O)CCl)OC3=O)cc2F)CC1 [Example 31, (S)-N-{3-[4-(4-cyanomethylidene-piperidin-1-yl)-3-fluorophenyl]-2-oxo-oxazolidin-5-ylmethyl}-chloroacetamide] | 6.25 µg/mL (≈ 15.4 µM) | 12.5 µg/mL (≈ 30.7 µM) | 0 |  | 12.5 µg/mL (≈ 30.7 µM) |  | 0.8 µg/mL (≈ 1.97 µM) | 0.8 µg/mL (≈ 1.97 µM) |  |
| N#CC=C1CCN(c2ccc(N3C[C@H](CNC(N)=S)OC3=O)cc2F)CC1 [Example 51, (S)-N-{3-[4-(4-cyanomethylidene-piperidin-1-yl)-3-fluorophenyl]-2-oxo-oxazolidin-5-ylmethyl}-thiocarbamide] | 1.56 µg/mL (≈ 4.01 µM) | 3.12 µg/mL (≈ 8.01 µM) | 0 | 1.56 | 3.12 µg/mL (≈ 8.01 µM) | <10^2 CFU/ml | 0.2 µg/mL (≈ 0.514 µM) | 0.4 µg/mL (≈ 1.03 µM) |  |
| CCC(C#N)=C1CCN(c2ccc(N3C[C@H](CNC(=O)C(Cl)Cl)OC3=O)cc2F)CC1 [Example 90, (S)-N-{3-[4-(4-(1-cyanopropylidene)-piperidin-1-yl)-3-fluorophenyl]-2-oxo-oxazolidin-5-ylmethyl}-dichloroacetamide] | 3.12 µg/mL (≈ 6.65 µM) | 12.5 µg/mL (≈ 26.6 µM) | 0 |  | 6.25 µg/mL (≈ 13.3 µM) |  | 0.4 µg/mL (≈ 0.852 µM) | 0.8 µg/mL (≈ 1.7 µM) |  |
| C#CCC(C#N)=C1CCN(c2ccc(N3C[C@H](CNC(C)=O)OC3=O)cc2F)CC1 [Example 96, (S)-N-{3-[4-(4-(1-cyano-3-yne-butylidene)-piperidin-1-yl)-3-fluorophenyl]-2-oxo-oxazolidin-5-ylmethyl}-acetamide] | 3.12 µg/mL (≈ 7.6 µM) | 12.5 µg/mL (≈ 30.5 µM) | 0 | 6.25 | 6.25 µg/mL (≈ 15.2 µM) | <10^2 CFU/ml | 0.8 µg/mL (≈ 1.95 µM) | 0.8 µg/mL (≈ 1.95 µM) |  |
| O=C([C@@H](O)CO)N1CC=C(c2c(F)cc(N3C[C@H](COc4ccon4)OC3=O)cc2F)CC1 [AZD 2563] |  |  |  |  |  |  |  |  | ineffective |
